This note sets out measurements from patent US20060035925A1, “SUBSTITUTED 4H-CHROMENES AND ANALOGS AS ACTIVATORS OF CASPASES AND INDUCERS OF APOPTOSIS AND THE USE THEREOF” (Cytovia, Inc., priority 1999, published 2006).

The EC50 is the concentration giving half of the maximal effect.

Molecules are shown by their SMILES. Read-outs that look alike come from different tables or passages of the source.

Assay [1] has as its system Human breast cancer cell line T-47D. Description: Caspase cascade activation assay (N-(Ac-DEVD)-N'-ethoxycarbonyl-R110 fluorogenic substrate) in T-47D cells. Format: cell-based. The settings on record: for Caspase activity (Ratio) T-47D: 24 h incubation with compound, ratio of net RFU (T=3 h) of test compound to control; for EC50: 24 h incubation, sigmoidal dose-response, read-out: Caspase potency EC50 (nM) T-47D. Here is the method: (§1) Human breast cancer cell lines T-47D and ZR-75-1 were grown according to media component mixtures designated by American Type Culture Collection +10% FCS (Invitrogen Corporation), in a 5% CO2-95% humidity incubator at 37° C. T-47D and ZR-75-1 cells were maintained at a cell density between 30 and 80% confluency at a cell density of 0.1 to 0.6×10^6 cells/ml. Cells were harvested at 600×g and resuspended at 0.65×10^6 cells/mL into appropriate media +10% FCS. An aliquot of 45 μl of cells was added to a well of a 96-well microtiter plate containing 5 μl of a 10% DMSO in RPMI-1640 media solution containing 0.16 to 10 μM of 2-amino-3-cyano-4-(3-bromo-4,5-dimethoxyphenyl)-4H-indolo[7,6-b]pyran (Example 42) or other test compound (0.016 to 1 μM final). An aliquot of 45 μl of cells was added to a well of a 96-well microtiter plate containing 5 μl of a 10% DMSO in RPMI-1640 media solution without test compound as the control sample. The samples were mixed by agitation and then incubated at 37° C. for 24 h in a 5% CO2-95% humidity incubator. After incubation, the samples were removed from the incubator and 50 μl of a solution containing 20 μM of N-(Ac-DEVD)-N′-ethoxycarbonyl-R110 (SEQ ID NO:1) fluorogenic substrate (Cytovia, Inc.; WO99/18856), 20% sucrose (Sigma), 20 mM DTT (Sigma), 200 mM NaCl (Sigma), 40 mM Na PIPES buffer pH 7.2 (Sigma), and 500 μg/ml lysolecithin (Calbiochem) was added. The samples were mixed by agitation and incubated at room temperature. Using a fluorescent plate reader (Model 1420 Wallac Instruments), an initial reading (T=0) was made approximately 1-2 min after addition of the substrate solution, employing excitation at 485 nm and emission at 530 nm, to determine the background fluorescence of the control sample. After the 3 h incubation, the samples were read for fluorescence as above (T=3 h).
(§2) The Relative Fluorescence Unit values (RFU) were used to calculate the sample readings as follows: RFU(T=3h)−Control RFU(T=0)=Net RFU(T=3h)
(§3) The activity of caspase cascade activation was determined by the ratio of the net RFU value for 2-amino-3-cyano-4-(3-bromo-4,5-dimethoxyphenyl)-4H-indolo[7,6-b]pyran or other test compound to that of control samples. The EC50 (nM) was determined by a sigmoidal dose-response calculation (Prism 2.0, GraphPad Software Inc.).

For assay [2], the system named is Human breast cancer cell line ZR-75-1. Description: Caspase cascade activation assay (N-(Ac-DEVD)-N'-ethoxycarbonyl-R110 fluorogenic substrate) in ZR-75-1 cells. Format: cell-based. To be noted: ZR-75-1 cells; for EC50: 24 h incubation, sigmoidal dose-response, read-out: Caspase potency EC50 (nM) ZR-75-1; for Caspase activity (Ratio) ZR-75-1: 24 h incubation with compound, ratio of net RFU (T=3 h) of test compound to control. Here is the method:
as §1, §2, §3

Regarding `N#CC1=C(N)Oc2cc(N)ccc2C1c1cccnc1` (stereo not drawn) [Example 24, 2,7-Diamino-3-cyano-4-(3-pyridyl)-4H-chromene], the “Caspase activity (Ratio) T-47D” value in assay [1] was <2. In addition, the EC50 in assay [1] (Homo sapiens, T47D, 24 h) was > 10000 nM; in assay [2] (Homo sapiens, ZR-75-1, 24 h), > 10000 nM. For the same compound, the “Caspase activity (Ratio) ZR-75-1” value in assay [2] is recorded as <2.
With `N#CC1=C(N)Oc2cc(N)ccc2C1c1cccc([N+](=O)[O-])c1` (stereo not drawn) [Example 25, 2,7-Diamino-3-cyano-4-(3-nitrophenyl)-4H-chromene], the “Caspase activity (Ratio) T-47D” value in assay [1] stood at 6.1. For the same compound, the EC50 in assay [1] (Homo sapiens, T47D, 24 h) stood at 463 nM; in assay [2] (Homo sapiens, ZR-75-1, 24 h) it was 325 nM. Also, the “Caspase activity (Ratio) ZR-75-1” value in assay [2] turned out to be 9.7.
In the case of `COc1ccc2c(c1)OC(N)=C(C#N)C2c1ccccc1` (stereo not drawn) [Example 26, 2-Amino-3-cyano-7-methoxy-4-phenyl-4H-chromene], the “Caspase activity (Ratio) T-47D” value in assay [1] turned out to be 3.5. Also, the EC50 in assay [1] (Homo sapiens, T47D, 24 h) turned out to be 140 nM; in assay [2] (Homo sapiens, ZR-75-1, 24 h), 82 nM. Also, in assay [2], the “Caspase activity (Ratio) ZR-75-1” value turned out to be 6.4.
With `COc1ccc2c(c1)OC(N)=C(C#N)C2C1CC=CCC1` (stereo not drawn) [Example 28, 2-Amino-3-cyano-7-methoxy-4-(1,2,3,6-tetrahydrophenyl)-4H-chromene], in assay [1], the “Caspase activity (Ratio) T-47D” value was found to be 3.4. The EC50 in assay [1] (Homo sapiens, T47D, 24 h) stood at 158 nM; in assay [2] (Homo sapiens, ZR-75-1, 24 h), 154 nM. In addition, the “Caspase activity (Ratio) ZR-75-1” value in assay [2] amounted to 5.2.
For the compound `N#CC1=C(N)Oc2ccccc2C1c1ccccc1` (stereo not drawn) [Example 29, 2-Amino-3-cyano-4-phenyl-4-H-chromene], in assay [1], the “Caspase activity (Ratio) T-47D” value was <2 and the EC50 is > 10000 nM. In addition, in assay [2], the “Caspase activity (Ratio) ZR-75-1” value is listed as <2 and the EC50 was > 10000 nM.
For the compound `COc1ccc2c(c1)OC(N)=C(C#N)C2c1cncc(C)c1` (stereo not drawn) [Example 30, 2-Amino-3-cyano-7-methoxy-4-(5-methyl-3-pyridyl)-4H-chromene], in assay [1], the “Caspase activity (Ratio) T-47D” value stood at 7.5. Moreover, the EC50 in assay [1] (Homo sapiens, T47D, 24 h) came to 24 nM; in assay [2] (Homo sapiens, ZR-75-1, 24 h), 14 nM. For the same compound, the “Caspase activity (Ratio) ZR-75-1” value in assay [2] worked out at 13.2.
For the compound `CCNc1ccc2c(c1)OC(N)=C(C#N)C2c1cncc(C)c1` (stereo not drawn) [Example 31, 2-Amino-3-cyano-7-ethylamino-4-(5-methyl-3-pyridyl)-4H-chromene], the “Caspase activity (Ratio) T-47D” value in assay [1] was 7.9. Also, the EC50 in assay [1] (Homo sapiens, T47D, 24 h) was 27 nM; in assay [2] (Homo sapiens, ZR-75-1, 24 h), 12 nM. Besides, the “Caspase activity (Ratio) ZR-75-1” value in assay [2] amounted to 11.0.
For `CCNc1ccc2c(c1)OC(N)=C(C#N)C2c1cncc(Br)c1` (stereo not drawn) [Example 32, 2-Amino-3-cyano-4-(5-bromo-3-pyridyl)-7-ethylamino-4H-chromene] the same measures were 7.2, 17 nM, 4 nM and 9.5.
As to `COc1ccc2c(c1)OC(N)=C(C#N)C2c1cncc(Br)c1` (stereo not drawn) [Example 33, 2-Amino-3-cyano-4-(5-bromo-3-pyridyl)-7-methoxy-4H-chromene], the “Caspase activity (Ratio) T-47D” value in assay [1] stood at 7.0. The EC50 in assay [1] (Homo sapiens, T47D, 24 h) worked out at 7 nM; in assay [2] (Homo sapiens, ZR-75-1, 24 h), 7 nM. The “Caspase activity (Ratio) ZR-75-1” value in assay [2] was 10.4.
As to `Cc1cncc(C2C(C#N)=C(N)Oc3cc(N)ccc32)c1` (stereo not drawn) [Example 34, 2,7-Diamino-3-cyano-4-(5-methyl-3-pyridyl)-4H-chromene], in assay [1], the “Caspase activity (Ratio) T-47D” value is on record as 4.7. Also, the EC50 in assay [1] (Homo sapiens, T47D, 24 h) came to 107 nM; in assay [2] (Homo sapiens, ZR-75-1, 24 h) it was 43 nM. Further, in assay [2], the “Caspase activity (Ratio) ZR-75-1” value was found to be 5.6.
As for `Cc1cncc(C2C3=CC=C4N=CC=C4C3OC(N)=C2C#N)c1` (stereo not drawn) [Example 35, 2-Amino-3-cyano-4-(5-methyl-3-pyridyl)-4H-indolo[4,5-b]pyran], the “Caspase activity (Ratio) T-47D” value in assay [1] amounted to 6.9. In addition, the EC50 in assay [1] (Homo sapiens, T47D, 24 h) was found to be 3 nM; in assay [2] (Homo sapiens, ZR-75-1, 24 h) it was 8 nM. Besides, the “Caspase activity (Ratio) ZR-75-1” value in assay [2] was 5.5.
As for `N#CC1=C(N)OC2C3=CC=NC3=CC=C2C1c1cncc(Br)c1` (stereo not drawn) [Example 36, 2-Amino-3-cyano-4-(5-bromo-3-pyridyl)-4H-indolo[4,5-b]pyran], the “Caspase activity (Ratio) T-47D” value in assay [1] is 5.9. Further, the EC50 in assay [1] (Homo sapiens, T47D, 24 h) came out at 10 nM; in assay [2] (Homo sapiens, ZR-75-1, 24 h) it was 3 nM. In addition, in assay [2], the “Caspase activity (Ratio) ZR-75-1” value amounted to 2.9.
For `N#CC1=C(N)Oc2cc(N)ccc2C1c1cncc(Br)c1` (stereo not drawn) [Example 37, 2,7-Diamino-3-cyano-4-(5-bromo-3-pyridyl)-4H-chromene] the same measures were 6.4, 57 nM, 31 nM and 3.4.
Turning to `COc1cncc(C2C(C#N)=C(N)Oc3cc(N)ccc32)c1` (stereo not drawn) [Example 39, 2,7-Diamino-3-cyano-4-(5-methoxy-3-pyridyl)-4H-chromene], the “Caspase activity (Ratio) T-47D” value in assay [1] is recorded as 8.4. The EC50 was found to be 283 nM in assay [1] (Homo sapiens, T47D, 24 h) and 177 nM in assay [2] (Homo sapiens, ZR-75-1, 24 h). Besides, the “Caspase activity (Ratio) ZR-75-1” value in assay [2] was 14.
As to `COc1cncc(C2C(C#N)=C(N)Oc3cc(OC)ccc32)c1` (stereo not drawn) [Example 40, 2-Amino-3-cyano-7-methoxy-4-(5-methoxy-pyridin-3-yl)-4H-chromene], the “Caspase activity (Ratio) T-47D” value in assay [1] was found to be 7.9. Also, the EC50 in assay [1] (Homo sapiens, T47D, 24 h) was found to be 27.4 nM; in assay [2] (Homo sapiens, ZR-75-1, 24 h), 16.9 nM. The “Caspase activity (Ratio) ZR-75-1” value in assay [2] is recorded as 8.9.
Take `COc1cncc(C2C3=CC=C4N=CC=C4C3OC(N)=C2C#N)c1` (stereo not drawn) [Example 41, 2-Amino-3-cyano-4-(5-methoxy-pyridin-3-yl)-4H-indolo[4,5-b]pyran]: the “Caspase activity (Ratio) T-47D” value in assay [1] stood at 6.8. Also, the EC50 was found to be 13.9 nM in assay [1] (Homo sapiens, T47D, 24 h) and 6.6 nM in assay [2] (Homo sapiens, ZR-75-1, 24 h). Further, the “Caspase activity (Ratio) ZR-75-1” value in assay [2] came out at 7.2.
For `COc1cc(C2C3=CC=C4C=CN=C4C3OC(N)=C2C#N)cc(Br)c1OC` (stereo not drawn) [Example 42, 2-Amino-3-cyano-4-(3-bromo-4,5-dimethoxyphenyl)-4H-indolo[7,6-b]pyran] the same measures were 7.6, 30 nM, 25 nM and 13.1.
For `COc1cccc(C2C3=CC=C4C=CN=C4C3OC(N)=C2C#N)c1` (stereo not drawn) [Example 43, 2-Amino-3-cyano-4-(3-methoxyphenyl)-4H-indolo[7,6-b]pyran], the “Caspase activity (Ratio) T-47D” value in assay [1] is 6.5. Moreover, the EC50 in assay [1] (Homo sapiens, T47D, 24 h) was 143 nM; in assay [2] (Homo sapiens, ZR-75-1, 24 h) it was 81.9 nM. The “Caspase activity (Ratio) ZR-75-1” value in assay [2] was determined as 5.9.
In the same order, the values of `COc1cccc(C2C(C#N)=C(N)Oc3c2ccc(N)c3N)c1` (stereo not drawn) [Example 44, 3-Cyano-2,7,8-triamino-4-(3-methoxyphenyl)-4H-chromene] are 7.0, 256 nM, 138 nM and 9.6.
`COc1cc(C2C(C#N)=C(N)Oc3c2ccc(N)c3N)cc(Br)c1OC` (stereo not drawn) [Example 45, 3-Cyano-2,7,8-triamino-4-(3-bromo-4,5-dimethoxyphenyl)-4H-chromene]: the “Caspase activity (Ratio) T-47D” value in assay [1] is recorded as 6.0. In addition, the EC50 in assay [1] (Homo sapiens, T47D, 24 h) is 41.8 nM; in assay [2] (Homo sapiens, ZR-75-1, 24 h), 35.4 nM. The “Caspase activity (Ratio) ZR-75-1” value in assay [2] is reported as 11.9.
On to `COc1cccc(C2C3=CC=C4N=CC=C4C3OC(N)=C2C#N)c1` (stereo not drawn) [Example 46, 2-Amino-3-cyano-4-(3-methoxyphenyl)-4H-indolo[4,5-b]pyran], for which, in assay [1], the “Caspase activity (Ratio) T-47D” value is on record as 6.4. Also, the EC50 in assay [1] was determined as 61.8 nM; in assay [1] (Homo sapiens, T47D, 24 h) it was 62 nM; in assay [2] (Homo sapiens, ZR-75-1, 24 h), 26 nM; in assay [2], 26.3 nM. The “Caspase activity (Ratio) ZR-75-1” value in assay [2] was 7.1.
Turning to `Cc1cc2c(cc1Cl)C(c1ccccc1)C(C#N)=C(N)O2` (stereo not drawn) [Example 47, 2-Amino-6-chloro-3-cyano-7-methyl-4-phenyl-4H-chromene], in assay [1], the “Caspase activity (Ratio) T-47D” value is on record as 1.9. Also, the EC50 was > 1000 nM in assay [1] (Homo sapiens, T47D, 24 h) and 552 nM in assay [2] (Homo sapiens, ZR-75-1, 24 h). Further, in assay [2], the “Caspase activity (Ratio) ZR-75-1” value is recorded as 7.3.
